Experimental data reported in US11096986B2, “Use of a neurofilament peptide for targeting neural stem cells” (Universite D'Angers, priority 2014, dated 2021).
Ends that are not written are not given here.

Tests used:
[1] = test system: neural stem cells; experiment: CyQUANT cell proliferation assay; assay type: cell-based, rat
Procedure: To analyse the NFL-TBS.40-63 peptide effect on the NSC proliferation, primary neurospheres were dissociated and 5.10^3 cells per well were plated on BD Cell-Tak (BD Biosciences) on 96 well microplate. Cells were treated with increased concentrations of biotinylated NFL-TBS.40-63 peptide, or with 1 μmol/L colchicine during 72 h at 37° C. After washes with PBS, cells were freezed at −80° C. Finally, the DNA concentration was analyzed using the CyQUANT cell proliferation assay kit (Molecular Probes).

[2] = test system: neural stem cells; experiment: Confocal microscopy of neurospheres (peptide uptake, α-tubulin microtubule network); assay type: cell-based, rat
Procedure: To visualize the NFL-TBS40-63 peptide uptake in neural stem cells, neurospheres were plated on BD Cell-Tak (BD Biosciences) coverslips or LabTek chambers. After 24 h, neurospheres were incubated with 20 μmol/L FITC labelled NFL-TBS40-63 peptide for 30 min, 6 h or 72 h. Following PBS washing, cells were fixed with 4% paraformaldehyde for 15 min and washed three times in PBS. They were then incubated in a 0.5% triton X-100 permeabilization solution for 30 min and washed three times in PBS before incubation in a blocking solution (1% bovine serum albumin in 0.1% triton X-100) for 1 h. Neurospheres were then incubated overnight at 4° C. with mouse anti-α-tubulin antibody (Sigma) 1/1000. After three washes in PBS, tubulin was localized using an Alexa 568 nm anti-mouse antibody (Life Technologies) 1/200 for 2 h. Neurospheres were washed three times with PBS before adding 3 μmol/L 4′6-diaminido-2-phenylindole (DAPI, Sigma) for 5 min. Following PBS washing, coversplips were mounted with a ProLong Gold antifade solution (Life Technologies).

[3] = test system: neural stem cells; experiment: Cell viability by Annexin V/PI staining and FACS; assay type: cell-based, rat
Procedure: To analyse the cell viability in the presence of the NFL-TBS40-63 peptide, neurospheres were seeded in 35-mm dishes and then treated with increased concentrations of biotinylated peptide or with 1 μmol/L colchicine during 3 or 5 days at 37° C. Neurospheres were then collected in a microcentrifuge tube. After centrifugation (5 min at 700 rpm), cells were dissociated mechanically and stained with annexin-V FITC (Annexin-V FITC Kit, Miltenyi Biotec) for 15 min at room temperature. Finally, cells were counterstained with 1 μg/mL PI solution prior to analysis by flow cytometry.

[4] = test system: neural stem cells; experiment: Cell cycle analysis by PI incorporation and FACS; assay type: cell-based, rat
Procedure: […] Neurospheres were then collected in a microcentrifuge tube. After centrifugation (5 min at 700 rpm), cells were dissociated mechanically and permeabilized with PBS-Tween 0.5% and fixed with ethanol 70% before adding 1 mg/mL RNase (Invitrogen) during 30 min at 37° C. The cell suspension was diluted in 10 μg/mL PI before DNA content analysis by flow cytometry.

[5] = test system: neural stem cells of adult rats; experiment: FACS internalization of FITC labelled peptide in neurospheres of adult rats; assay type: cell-based, rat; settings: 40 μmol/L, 30 minutes
Procedure: (§1) Primary cultures of neural stem cells are derived from the sub-ventricular zone of newborn (1-5 days) or adults (<4 months) brain Wistar rats. The dissociated cells were grown in MEM alpha (PAA) supplemented with 25 mmol/L D-glucose (Sigma), 1 mmol/L Na Pyruvate, 15 mmol/L HEPES, 5% penicillin/streptomycin (PAA) and 1% B27 (Gibco), and containing 20 ng/mL EGF (Promega). After 5-7 days, stem cells formed floating neurospheres.
To evaluate the internalization of the FITC labelled NFL-TBS40-63 peptide by the fluorescence-activated cell sorting technique (FACS, Becton Dickinson), neurospheres were seeded in 35-mm dishes and cultured for 30 min at 37° C. in media containing FITC labelled NFL-TBS40-63 peptide at increasing concentrations. To quench the extracellular signal of the FITC labelled NFL-TBS40-63 peptide, 0.4% trypan blue (Sigma) was added before FACS analysis. To investigate the uptake mechanism, neurospheres were preincubated at 4° C. during 30 min, or with 10 mmol/L sodium azide in the presence of 6 mmol/L 2-deoxy-D-glucose to deplete cellular ATP, or with different inhibitors during 30 min at 37° C. Then 20 μmol/L FITC labelled peptide was added to the cells for 30 min at 37 C.°. […] The fluorescent positive cells that incorporated the FITC labelled peptide were analyzed by flow cytometry (FACSCalibur, Becton Dickinson).

[6] = test system: adult neural stem cells in the SVZ; experiment: Intra-ventricular injection of the peptide and immunohistochemistry of the SVZ; assay type: in vivo, rat
Procedure: Adult females Wistar rats were anesthetized by intraperitoneal injection of a mixture of ketamine 10% (80 mg/kg) and xylazine 2% (10 mg/kg). Animals were then placed on a stereotaxic apparatus (David Kopf instruments, Tujunga, Calif.), and a sagital incision was made through the skin to expose the cranium in which a small hole was made using a dental drill, at the appropriate coordinates (−0.8 mm anterior and 1.6 mm lateral to the bregma). A volume of […] of the FITC-peptide 1 mmol/L was injected, using a 10-μL Hamilton syringe (Hamilton glass syringe 70 RN) with a 32-G needle (Hamilton, VWR), at a depth of 4.3 mm from the outer border of the cranium into the right lateral ventricle, and connected through a cannula to a 100-μL Hamilton 22-G syringe (Hamilton glass syringe 810 RN) containing the peptide. A slow-infusion was performed by convection-enhanced delivery (CED) with an osmotic pump (Harvard Apparatus) at a flow rate of 0.5 μL/min. After injection and withdrawal of the needle (0.5 mm/min), the head skin was sutured. Animals were sacrificed 1 hour, 6 hours, or 24 hours after the injection, and brains were removed and frozen, before sectioning them using a Leica cryostat. […]

[7] = test system: neural stem cells of newborn rats; experiment: FACS internalization of FITC labelled peptide in neurospheres of newborn rats; assay type: cell-based, rat; settings: for percentage of newborn NSCs that internalized the peptide: 30 min, FACS
Procedure: as §1
(§2) To evaluate the internalization of the FITC labelled NFL-TBS40-63 peptide by the fluorescence-activated cell sorting technique (FACS, Becton Dickinson), neurospheres were seeded in 35-mm dishes and cultured for 30 min at 37° C. in media containing FITC labelled NFL-TBS40-63 peptide at increasing concentrations. To quench the extracellular signal of the FITC labelled NFL-TBS40-63 peptide, 0.4% trypan blue (Sigma) was added before FACS analysis. To investigate the uptake mechanism, neurospheres were preincubated at 4° C. during 30 min, or with 10 mmol/L sodium azide in the presence of 6 mmol/L 2-deoxy-D-glucose to deplete cellular ATP, or with different inhibitors during 30 min at 37° C. Then 20 μmol/L FITC labelled peptide was added to the cells for 30 min at 37 C.°. Subsequently, after centrifugation (5 min at 700 rpm), cells were dissociated mechanically and washed twice with PBS, and then re-suspended in 50 μg/mL Propidium iodide (PI, Sigma). The fluorescent positive cells that incorporated the FITC labelled peptide were analyzed by flow cytometry (FACSCalibur, Becton Dickinson).

[8] = test system: glioblastoma cells; settings: glioblastoma cells (Bocquet et al., 2009; Bergès et al., 2012); cited from earlier work
[9] = test system: PSA-NCAM expression on neural stem cells; experiment: PSA-NCAM expression by flow cytometry; assay type: cell-based, rat; settings: high peptide concentrations, 7 days
Procedure: To quantify the PSA-NCAM expression on neural stem cells, neurospheres were seeded in 35-mm dishes and cultured for 7 days at 37° C. in media containing biotinylated NFL-TBS.40-63 peptide at increasing concentrations, or containing 1% new-born calf serum (NBCS). After dissociation, cells were incubated with the anti-PSA-NCAM antibody conjugated to R-phycoerythrin (PE) for 10 minutes at 4° C. (Miltenyi), washed and then re-suspended in 50 μg/mL PI. The fluorescent positive cells that expressed PSA-NCAM were analyzed by flow cytometry.

[10] = test system: neural stem cells of newborn rats; experiment: Uptake mechanism by FACS (4° C., ATP depletion, endocytosis inhibitors); assay type: cell-based, rat
Procedure: as §2

[11] = test system: neural stem cells; experiment: Self-renewal assay (secondary neurospheres); assay type: cell-based, rat; settings: primary neurospheres cultured with peptide, dissociated, 5 days in culture medium only
Procedure: (§3) To investigate neurosphere forming properties, 5.10^3 SVZ cells were seeded per well in a 24 wells plate in media containing 20 ng/mL EGF. Cells were incubated in the absence or presence of increasing concentrations of biotinylated peptide, or with 1 μg/mL colchicine. After 5-7 days, the total number of primary neurospheres and the percent of adherent primary neurospheres were determined in each condition by microscopy analysis, and pictures were taken with an inverted microscope and the Metamorph software. Then for self-renewal assay, primary neurospheres were collected in each condition, dissociated as single cells, and seeded in media containing 20 ng/mL EGF. After 5 days, the total number of secondary neurospheres was counted in each condition by microscopy analysis.

[12] = test system: neural stem cells; experiment: Neurosphere forming analysis (primary neurospheres, adherence); assay type: cell-based, rat
Procedure: as §3

[13] = test system: neurones and astrocytes; settings: neurones and astrocytes (Bocquet et al., 2009; Bergès et al., 2012); cited from earlier work
[14] = summary of proliferation and adhesion results

## COc1cc2c(c(OC)c1OC)-c1ccc(OC)c(=O)cc1[C@@H](NC(C)=O)CC2 [colchicine, reference compound]
[1]; colchicine, anti-proliferative agent control
  neural stem cell proliferation (DNA concentration): significant decrease
[2]; colchicine
  microtubule network of NSC: profoundly affected
[3]; colchicine, three days, Annexin V-FITC and PI
  number of viable NSC: strongly reduced
[4]; 1 μg/mL colchicine, positive control
  cellular cycle of NSC: affected

## FITC-peptide: NFL-TBS40-63 peptide coupled to carboxy-fluorescein isothiocyanate (FITC) (YSSYSAPVSSSLSVRRSYSSSSGS; also: coupled to FITC, site not given here; UniProt P07196 40-63, looked up, fragment)
[5]
  maximum threshold of peptide uptake in adult NSC (percentage of fluorescent cells): 92.74±2.51%
[2]; NSCs in the neurospheres and progenitor cells in the periphery, 20 μmol/L FITC labelled peptide
  internalization of the peptide by confocal microscopy: confirmed the internalization
[6]; 1 mmol/L FITC peptide in right lateral ventricle of adult rats, 1 hour after injection
  localisation of the peptide in brain sections: localised in the right lateral ventricle, in the ependymal cells and a part was observed in the SVZ
[6]; after injection in right lateral ventricle, confocal analyses
  cytotoxicity in vivo: without causing detectable cytotoxicity
[7]; 5 μmol/L FITC-peptide
  percentage of newborn NSCs that internalized the peptide: 38.72±9.08%
[7]; 40 μmol/L FITC-peptide
  percentage of newborn NSCs that internalized the peptide: 91.07±5.13%
[7]; 0.4% trypan blue added before FACS reading
  peptide uptake after quenching of surface-bound fluorescence: dose-dependent uptake of the peptide similar to that without quenching

## YSSYSAPVSSSLSVRRSYSSSSGS (TBS motif of the human light chain neurofilament protein, amino acids) [NFL-TBS40-63 peptide]
[8]
  concentration at which the peptide disrupts microtubule formation and the cellular cycle: higher than 10 μm
[9]
  PSA-NCAM expression on the neural stem cells: weak decrease
[1]; increased peptide concentrations, one week (72 h in method)
  neural stem cell proliferation (DNA concentration): significant decrease
[10]; ATP-depleted buffer 30 minutes before peptide, 20 μmol/L FITC labelled peptide
  peptide uptake under ATP-depletion: not affected
[10]; cells at 4° C. 30 minutes before peptide, 20 μmol/L FITC labelled peptide
  peptide uptake at 4° C.: not affected
[10]; chlorpromazine, PMA, DAM, wortmaninn, U0126, genistein, sunitinib, gefitinib pre-treatment 30 min, 20 μmol/L peptide
  peptide uptake in the presence of inhibitors of endocytic and signalling pathways: not affected
[2]; 6 hours of incubation with the peptide (20 μmol/L FITC labelled)
  microtubule network of NSC: not affected
[3]
  NSC cell viability: not modified
[11]
  numbers of secondary neurospheres compared to control (self-renewal): significantly lower numbers of secondary neurospheres
[12]; 40 μmol/L peptide
  adherence of primary neurospheres: most of primary neurospheres were adherent
[12]; increased peptide concentrations, 5 days, except for 100 μmol/L
  number of primary neurospheres compared to untreated control: did not change
[12]; peptide concentrations higher than 40 μmol/L
  adherence of primary neurospheres: no floating neurospheres were observed
[12]; [14]
  high concentrations that affect both proliferation and adhesion of neural stem cells: ≥ 40 µmol/L
  low concentrations that disrupt cell proliferation without effect on cell attachment: up to 20 μmol/L
[13]
  microtubule and cellular cycle disruption in normal cells: not observed
[4]; increased peptide concentrations, 48 h
  cellular cycle of NSC: remained unchanged
[4]; with or without peptide, 48 h
  cells in G1-phase: 60-65%
  cells in G2/M-phases: ~7%
  cells in S-phase: ~10%
